Paper PMC4644118 (Journal of medicinal chemistry, 2015)

Columns and labels:
[1] = mice; background statement on previous lead; cited from earlier work
[2] = target: rat nNOS (Rattus norvegicus, UniProt P29476); test: hemoglobin capture assay, purified rat nNOS; type: biochemical; conditions: relative to 21

Compound | oral bioavailability and brain permeation [1] | fold weaker binding to nNOS than 21 [2] [fold]
Cl.Cl.Nc1ccc2ccc(CCNCCc3cccc(F)c3)cc2n1 [Compound 1] | good oral bioavailability and brain permeation | –
Cl.Cl.Nc1ccc2ccc(COc3cccnc3)cc2n1 [Compound 11, 7-[(Pyridin-3-yloxy)methyl]quinolin-2-amine Dihydrochloride] | – | ~17
